Laboratory results published in patent publication US10076525B2, “Sex steroid precursors alone or in combination with selective estrogen receptor modulators for the prevention and treatment of dyspareunia in postmenopausal women” (ENDORECHERCHE, INC., priority 2004, dated 2018).

Tests used:
rat vagina [1] = assay: Intravaginal DHEA suppository: vaginal epithelium morphology in OVX rats (Example 3); type: in vivo; details: 14 days
Source text: (§1) The animals were housed individually and were allowed free access to water and rodent food (Lab Diet 5002, Ralston Purina, St-Louis, Mo.).
(§2) The insertion into the vagina of one suppository began on day 5 of the study and was continued once daily until day 18 of the study, for a total of 14 days of treatment. The suppository was gently placed in the vaginal opening and then delicately pushed about 2-3 mm inside the vagina with the help of a small, smooth glass stick, disinfected in 70% alcohol and dried between each animal.
Vagina—including the urethra—and uterus were collected, and then trimmed as described below. For further analysis, two pieces of inguinal mammary gland were sampled, as well as a square piece of about 2 X 2 cm of shaved dorsal skin, the latter being put and gently flattened on a piece of carton.
Any other lipophilic base such as Fattibase, Wecobee, cocoa butter, theobroma oil or other combinations of Whitepsol bases could also be used. […] The proper amount of suppository base pellets to weight in order to obtain the final volume needed was calculated based on the previously measured density of the suppository base, which was 47.5 mg per 50 μl. The suppository base was put in a small beaker, melted in microwave at power 50% for about 3 min and 30 sec and then transferred on a heating plate, which was adjusted at the lowest power in order to keep the suppository base at a temperature of 50±3° C. […] These moulds were made from microcentrifuge tubes, each of them previously calibrated with 50 μl of water and cut at the level of the line drawn at the water surface. After 30 min of cooling at room temperature, the suppositories were put at 4° C. for another 30 min. Finally, the excess of base was trimmed with a razor blade and the suppositories were removed from their moulds and stored in closed glass bottles at 4° C. until use. They were allowed to reach room temperature before being applied to the animals.
The organs were immersed in 10% neutral buffered formalin immediately after resection. Each vagina and uterus was divided into 8 equal cross-segments and 4 cross-segments including two from the cervix and two from each of the two proximal and distal horns, respectively. The segments were then routinely processed and embedded all together in the same paraffin block.
Segment 6 represented the deeper vaginal mucosa and is separated from the uterine cervix by only one segment.

rat vagina [2] = assay: Histological evaluation of epithelium, lamina propria and muscularis in the seven rat vaginal segments; type: in vivo; details: OVX rats, 36 wk; for epithelium morphology: Acolbifene 2.5, Premarin 0.5 mg/kg oral, DHEA 80 mg/kg dorsal skin
Source text: as §1
(§3) Animals from the intact and OVX control groups received the vehicle alone.
(§4) Twenty-four hours after the last dosing, overnight fasted animals were sacrificed under isoflurane anesthesia by exsanguination at the abdominal aorta (9 animals per group) or by intracardiac perfusion with 10% neutral buffered formalin (5 animals per group). Vaginae from non-perfused animals were collected and weighed, while the vaginae collected from perfused animals were marked with black ink on the ventral side, and then trimmed as described below.
(§5) The entire vagina of each perfused animal was post-fixed in 10% neutral buffered formalin.
The degree of compactness of collagen fibers in the vagina was categorized as low, moderate and high (FIGS. 6A-6C, respectively), as observed in the area proximal to the epithelium. <<Low>> and <<moderate compactness>> were associated with the presence of coarse collagen fibers loosely or less loosely aggregated together, respectively, while <<high compactness>> was the term used to describe tightly packed fine collagen fibers, displaying a smooth, textured appearance. In all the animals, there were relatively few fibrocytes in proportion to the amount of collagen, and they appeared predominantly flattened and shrunken.

rat vagina [3] = assay: Histomorphometry: thickness of vaginal layers at the fifth segment; type: in vivo; details: OVX rats, 36 wk
Source text: as §3, §4, §5
Measurements of the different vaginal layers were performed on the fifth segment (FIG. 1), which is approximately halfway between the middle region and the portio vaginalis uteri (segment 7). […] Images were captured with a DC-330 3CCD color camera (Dage-MTI, Michigan City, Ind., USA) and quantified using Image-Pro Plus 3.0 software (Media Cybernetics, Silver Spring, Md., USA). Thus, using a ×5 objective (Leica Microsystems, Willowdale, Ont., Canada), 3 to 4 thickness measurements per layer were obtained from representative areas of the epithelium and muscularis, and for the three vaginal layers together. The total vaginal thickness, the thickness of the epithelium and the thickness of the muscularis were thus measured. The thickness of the lamina propria was obtained by subtracting the thickness of the epithelium and muscularis from total vaginal thickness.
(§6) Data are presented as means±SEM of 8-9 animals per group for vaginal weight or 5 animals per group for vaginal layer thickness determinations. Statistical significance was determined according to the multiple-range test of Duncan-Kramer (Kramer, 1956, Biometrics, 12: 307-310).

PR = assay: Immunohistochemistry of PR in fifth vaginal segment; type: in vivo, rat; details: OVX rats, 36 wk
Method: as §3
(§7) Immunostaining was performed using Zymed SP kits (San Francisco, Calif.). Paraffin sections (4 μm) were deparaffinized in toluene and rehydrated through ethanol. Endogenous peroxidase activity was eliminated by preincubation with 3% H2O2 in methanol for 30 min. A microwave retrieval technique using citrate buffer (Tacha and Chen, 1994) was applied. After cooling the slides, non-specific binding was blocked using 10% goat serum for 20 min. Sections were then incubated for 1.5 h at room temperature with ERα (AB-1, Calbiochem, California), AR (N-20, Santa Cruz Biotechnology, California) or PR (Ab-4, NeoMarkers, California) antibodies, at 1:200, 1:250 and 1:250 respectively. After washing in PBS buffer, sections were incubated with biotinylated anti-rabbit secondary antibody for 10 min and thereafter with streptavidin-peroxidase for another 10 min. Diaminobenzidine was used as the chromogen to visualize the biotin/streptavidin-peroxidase complex, under microscope monitoring. Counterstaining was performed using #2 Gill's hematoxylin for 30 sec. For controls, immunoabsorption with an excess of the peptide used to raise the antibody, or substitution with non immune rabbit IgG, was performed.

ERα = assay: Immunohistochemistry of ERα in fifth vaginal segment; type: in vivo, rat; details: OVX rats, 36 wk
Method: as §3, §7

rat vagina [4] = details: ovariectomized rat, DHEA 30 mg twice daily on dorsal skin, one, three or six months; cited from earlier work
[5] = Serum concentration of DHEA after intravaginal application; type: in vivo; details: female, rat
Source text: as §2

rat vagina [6] = assay: Vaginal weight after 36 weeks of treatment; type: in vivo; details: OVX rats, 36 wk, mean±SEM; OVX 101±5, intact 205±11
Source text: as §3, §4, §6

## C[C@]12CC[C@H](O)CC1=CC[C@@H]1[C@@H]2CC[C@]2(C)C(=O)CC[C@@H]12 [DHEA, dehydroepiandrosterone]
Rat vagina [1]; DHEA 0.33 mg/suppository intravaginal, segment 6
  vaginal epithelium thickness: 2-5 cell layers
Rat vagina [1]; DHEA 0.33 mg/suppository, unevenly distributed over the whole vagina
  animals displaying mild inflammation: four
Rat vagina [1]; DHEA 0.66 mg/suppository, three external segments
  animals displaying mild inflammation: two
Rat vagina [1]; DHEA 1.00 mg/suppository, four external segments
  animals displaying mild inflammation: four
Rat vagina [2]; at the doses used
  reversal of the OVX-induced epithelial atrophy: partially reversed
Rat vagina [2]; segment 5
  layers of mucous cells in the vaginal epithelium: 3-5 layers
  epithelium morphology: LHM
Rat vagina [2]; segment 1
  epithelium morphology: KS-LHM
Rat vagina [2]; segment 2
  epithelium morphology: LHM
Rat vagina [2]; segment 3
  epithelium morphology: LHM
Rat vagina [2]; segment 4
  epithelium morphology: LHM
Rat vagina [2]; segment 6
  epithelium morphology: LHM-SCM
Rat vagina [2]; segment 7
  epithelium morphology: LHM-SCM
Rat vagina [3]; fifth segment
  total vaginal thickness lower than that of the Premarin alone-treated group: about 25%
Rat vagina [3]; fifth segment, mean±SEM
  muscularis thickness: 50±2 μm
  thickness of the vaginal epithelium: 38±4 μm
Rat vagina [3]; fifth segment, mean±SEM, OVX 128±3, intact 262±39
  total vaginal wall thickness: 184±21 μm
Rat vagina [3]; fifth segment, mean±SEM, total minus epithelium and muscularis, OVX 76±2, intact 135±28
  lamina propria thickness: 96±20 μm
Rat vagina [3]; 46% decrease after OVX
  reversal of the OVX-induced decrease of the vaginal muscular layer: 41%
Rat vagina [3]; 50% decrease after OVX
  reversal of the OVX-induced decrease in total vaginal wall thickness: 42%
PR; epithelium
  PR: semi-quantitative evaluation of labeled nuclei: 0
PR; lamina propria
  PR: semi-quantitative evaluation of labeled nuclei: 0
PR; muscularis
  PR: labeling intensity: ++
  PR: semi-quantitative evaluation of labeled nuclei: 1
ERα; epithelium
  ERα: labeling intensity: ++
  ERα: semi-quantitative evaluation of labeled nuclei: 2
ERα; lamina propria
  ERα: labeling intensity: +++
  ERα: semi-quantitative evaluation of labeled nuclei: 2
ERα; muscularis
  ERα: labeling intensity: +++
  ERα: semi-quantitative evaluation of labeled nuclei: 3
Rat vagina [4]
  histopathologic examination of the vagina: reversal of vaginal mucosal atrophy
[5]; 0.33 mg
  AUC: 32 ± 4 ng·h/mL
[5]; 0.66 mg
  AUC: 50 ± 7 ng·h/mL
[5]; 1 mg
  AUC: 131 ± 23 ng·h/mL
Rat vagina [6]
  vaginal weight: 171 ± 12 mg
